In patent publication US9283202B2, “Stable peracid-containing compositions” (CHD Bioscience, Inc., priority 2012, dated 2016):

Test: active ingredient concentration over time in 50% ethanol solution (pullulan precipitating agent)
Type: physicochemical
Settings: 50% ethanol solution in buffer, 25 minutes, one data point every five minutes (FIG. 7)
Protocol: FIGS. 6-8 show examples of removing pullulan by precipitation using an alcohol or PEG. As an alternative, pullulan can be removed by precipitation using either an alcohol or polyethylene glycol (PEG). In this approach, the precipitating agent is added to the solution and causes pullulan to form a white solid. The active ingredient is not affected by this addition. The solid can be stopped from getting into the solution by either an appropriate container or a simple filter. […] In FIG. 7, a 50% ethanol solution was prepared in buffer. The active ingredient concentration was measured over time for 25 minutes (one data point every five minutes). […] Furthermore, measurements of the same concentration in straight buffer yield the same measured concentration of active ingredient.

With `CC(=O)C(=O)OO` [active ingredient, peroxy pyruvic acid] the “measured concentration of active ingredient over time” value was “no statistical difference”.
